ChEMBL document CHEMBL1201862, “PubChem BioAssay data set” (2004)
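Method: 48-hour compound exposure of cells in 96-well plates, five concentrations, linear interpolation of endpoints. GI50 = concentration required for 50% inhibition of growth.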 Calls of active or inactive are those of the source. Rule as the data show it: active = GI50 up to about 1.1 µM and inactive = higher.

Key:
Assay in all cases: NCI-60 cell line screen, 48 h
OVCAR-8 = tested on: OVCAR-8
SK-MEL-28 = tested on: SK-MEL-28
NCI-H522 = tested on: NCI-H522
SW-620 = tested on: SW-620
A549 = tested on: A549
Hs-578T = tested on: Hs-578T
M14 = tested on: M14
MCF7 = tested on: MCF7
IGROV-1 = tested on: IGROV-1
MDA-N = tested on: MDA-N
SF-295 = tested on: SF-295
SN12C = tested on: SN12C
HOP-92 = tested on: HOP-92
OVCAR-3 = tested on: OVCAR-3
BT-549 = tested on: BT-549
RPMI-8226 = tested on: RPMI-8226
HCT-15 = tested on: HCT-15
SNB-75 = tested on: SNB-75
SK-MEL-2 = tested on: SK-MEL-2
HCT-116 = tested on: HCT-116
ACHN = tested on: ACHN
MDA-MB-231 = tested on: MDA-MB-231
SF-268 = tested on: SF-268
SF-539 = tested on: SF-539
SK-OV-3 = tested on: SK-OV-3
A498 = tested on: A498
CCRF-CEM = tested on: CCRF-CEM
NCI/ADR-RES = tested on: NCI/ADR-RES
UACC-62 = tested on: UACC-62
U-251 = tested on: U-251
OVCAR-5 = tested on: OVCAR-5
PC-3 = tested on: PC-3
MDA-MB-435 = tested on: MDA-MB-435
NCI-H226 = tested on: NCI-H226
NCI-H23 = tested on: NCI-H23
DU-145 = tested on: DU-145
HL-60 = tested on: HL-60
UO-31 = tested on: UO-31
RXF 393 = tested on: RXF 393
SK-MEL-5 = tested on: SK-MEL-5
CAKI-1 = tested on: CAKI-1
UACC-257 = tested on: UACC-257
COLO 205 = tested on: COLO 205
HOP-62 = tested on: HOP-62
Malme-3M = tested on: Malme-3M
OVCAR-4 = tested on: OVCAR-4
TK-10 = tested on: TK-10
SNB-19 = tested on: SNB-19
KM12 = tested on: KM12
T47D = tested on: T47D
SR = tested on: SR
NCI-H460 = tested on: NCI-H460
786-0 = tested on: 786-0
HCC 2998 = tested on: HCC 2998
MOLT-4 = tested on: MOLT-4
LOX IMVI = tested on: LOX IMVI
EKVX = tested on: EKVX
HT-29 = tested on: HT-29
K562 = tested on: K562

Question: What does the source list for `CCN(CC)CCSc1c2cc(OC)ccc2nc2ccc(OC)cc12`?
Answer: GI50 (OVCAR-8): 3.12 µM (inactive); GI50 (SK-MEL-28): 10.3 µM (inactive); GI50 (NCI-H522): 1.59 µM (inactive); GI50 (SW-620): 2.56 µM (inactive); GI50 (A549): 16.1 µM (inactive); GI50 (Hs-578T): 1.68 µM (inactive); GI50 (M14): 6.73 µM (inactive); GI50 (MCF7): 2.51 µM (inactive); GI50 (IGROV-1): 1.95 µM (inactive); GI50 (MDA-N): 4.39 µM (inactive); GI50 (SF-295): 19.4 µM (inactive); GI50 (SN12C): 3.03 µM (inactive); GI50 (HOP-92): 2.19 µM (inactive); GI50 (OVCAR-3): 2.59 µM (inactive); GI50 (BT-549): 5.69 µM (inactive); GI50 (RPMI-8226): 2.4 µM (inactive); GI50 (HCT-15): 2.86 µM; GI50 (SNB-75): 14.4 µM (inactive); GI50 (SK-MEL-2): 17 µM (inactive); GI50 (HCT-116): 2.26 µM (inactive); GI50 (ACHN): 2.21 µM (inactive); GI50 (MDA-MB-231): 6.53 µM (inactive); GI50 (SF-268): 3.08 µM (inactive); GI50 (SF-539): 2.45 µM (inactive); GI50 (SK-OV-3): 25.1 µM (inactive); GI50 (A498): 23 µM (inactive); GI50 (CCRF-CEM): 2.86 µM (inactive); GI50 (NCI/ADR-RES): 7.67 µM (inactive); GI50 (UACC-62): 14.3 µM (inactive); GI50 (U-251): 7.94 µM (inactive); GI50 (OVCAR-5): 15.8 µM (inactive); GI50 (PC-3): 3.56 µM (inactive); GI50 (MDA-MB-435): 7.03 µM (inactive); GI50 (NCI-H226): 16.2 µM (inactive); GI50 (NCI-H23): 3.3 µM (inactive); GI50 (DU-145): 2.05 µM (inactive); GI50 (HL-60): 5.3 µM (inactive); GI50 (UO-31): 2.37 µM (inactive); GI50 (RXF 393): 7.38 µM (inactive); GI50 (SK-MEL-5): 13.6 µM (inactive); GI50 (CAKI-1): 7.53 µM (inactive); GI50 (UACC-257): 4.35 µM (inactive); GI50 (COLO 205): 1.98 µM (inactive); GI50 (HOP-62): 16.7 µM (inactive); GI50 (Malme-3M): 2.75 µM (inactive); GI50 (OVCAR-4): 6.03 µM (inactive); GI50 (TK-10): 4.65 µM (inactive); GI50 (SNB-19): 12.1 µM (inactive); GI50 (KM12): 5.09 µM (inactive); GI50 (T47D): 1.93 µM (inactive); GI50 (SR): 2.43 µM (inactive); GI50 (NCI-H460): 9.75 µM (inactive); GI50 (786-0): 1.85 µM (inactive); GI50 (HCC 2998): 13.5 µM (inactive); GI50 (MOLT-4): 2.29 µM (inactive); GI50 (LOX IMVI): 2.17 µM (inactive); GI50 (EKVX): 9.59 µM (inactive); GI50 (HT-29): 2.05 µM (inactive)

Question: For `O=C(NC1=C(Cl)C(=O)c2ccccc2C1=O)C(=O)c1c(O)c2ccccc2oc1=O`, which GI50 (OVCAR-8) is on record?
Answer: Its GI50 is 3.44 µM (inactive).

Question: What about the GI50 (SK-MEL-28) of the same compound?
Answer: The GI50 was 2.39 µM (inactive).

Question: What about the GI50 (NCI-H522) of the same compound?
Answer: The GI50 was 3.69 µM (inactive).

Question: And the GI50 (SW-620)?
Answer: Its GI50 is 5.22 µM (inactive).

Question: And the GI50 (A549)?
Answer: Its GI50 is 2.33 µM (inactive).

Question: What about the GI50 (Hs-578T) of the same compound?
Answer: The GI50 was 5.2 µM (inactive).

Question: And the GI50 (M14)?
Answer: The GI50 was 1.83 µM (inactive).

Question: What about the GI50 (MCF7) of the same compound?
Answer: The GI50 was 1.62 µM (inactive).

Question: What about the GI50 (IGROV-1) of the same compound?
Answer: The GI50 was 3.27 µM (inactive).

Question: What about the GI50 (MDA-N) of the same compound?
Answer: The GI50 was 1.37 µM (inactive).

Question: And the GI50 (SF-295)?
Answer: Its GI50 is 2.46 µM (inactive).

Question: And the GI50 (SN12C)?
Answer: The GI50 was 3.7 µM (inactive).

Question: And the GI50 (HOP-92)?
Answer: Its GI50 is 12.4 µM (inactive).

Question: And the GI50 (OVCAR-3)?
Answer: The GI50 was 1.16 µM (inactive).

Question: And the GI50 (K562)?
Answer: Its GI50 is 5.15 µM (inactive).

Question: And the GI50 (BT-549)?
Answer: Its GI50 is 3.06 µM (inactive).

Question: What about the GI50 (RPMI-8226) of the same compound?
Answer: The GI50 was 6.19 µM (inactive).

Question: What about the GI50 (HCT-15) of the same compound?
Answer: The GI50 was 3.18 µM.

Question: And the GI50 (SNB-75)?
Answer: The GI50 was 5.14 µM (inactive).

Question: What about the GI50 (SK-MEL-2) of the same compound?
Answer: Its GI50 is 2.32 µM (inactive).

Question: What about the GI50 (HCT-116) of the same compound?
Answer: The GI50 was 2.56 µM (inactive).

Question: And the GI50 (ACHN)?
Answer: The GI50 was 3.4 µM (inactive).

Question: And the GI50 (MDA-MB-231)?
Answer: The GI50 was 3.48 µM (inactive).

Question: What about the GI50 (SF-268) of the same compound?
Answer: The GI50 was 5.62 µM (inactive).

Question: And the GI50 (SF-539)?
Answer: Its GI50 is 2.8 µM (inactive).

Question: What about the GI50 (SK-OV-3) of the same compound?
Answer: The GI50 was 12.6 µM (inactive).

Question: And the GI50 (A498)?
Answer: The GI50 was 14.7 µM (inactive).

Question: What about the GI50 (CCRF-CEM) of the same compound?
Answer: Its GI50 is 5.94 µM (inactive).

Question: What about the GI50 (NCI/ADR-RES) of the same compound?
Answer: Its GI50 is 3.13 µM (inactive).

Question: What about the GI50 (UACC-62) of the same compound?
Answer: The GI50 was 2.3 µM (inactive).

Question: And the GI50 (U-251)?
Answer: Its GI50 is 5.74 µM (inactive).

Question: And the GI50 (OVCAR-5)?
Answer: The GI50 was 11.5 µM (inactive).

Question: And the GI50 (PC-3)?
Answer: Its GI50 is 2.88 µM (inactive).

Question: And the GI50 (MDA-MB-435)?
Answer: The GI50 was 1.39 µM (inactive).

Question: What about the GI50 (NCI-H226) of the same compound?
Answer: The GI50 was 9.18 µM (inactive).

Question: What about the GI50 (NCI-H23) of the same compound?
Answer: Its GI50 is 1.53 µM (inactive).

Question: And the GI50 (DU-145)?
Answer: The GI50 was 1.49 µM (inactive).

Question: What about the GI50 (HL-60) of the same compound?
Answer: Its GI50 is 3.21 µM (inactive).

Question: What about the GI50 (UO-31) of the same compound?
Answer: The GI50 was 7.66 µM (inactive).

Question: And the GI50 (RXF 393)?
Answer: Its GI50 is 5.62 µM (inactive).

Question: And the GI50 (SK-MEL-5)?
Answer: Its GI50 is 0.368 µM (active).

Question: And the GI50 (CAKI-1)?
Answer: The GI50 was 9.66 µM (inactive).

Question: What about the GI50 (UACC-257) of the same compound?
Answer: The GI50 was 1.51 µM (inactive).

Question: And the GI50 (COLO 205)?
Answer: The GI50 was 5.87 µM (inactive).

Question: What about the GI50 (HOP-62) of the same compound?
Answer: Its GI50 is 5.46 µM (inactive).

Question: And the GI50 (Malme-3M)?
Answer: The GI50 was 1.07 µM (active).

Question: What about the GI50 (OVCAR-4) of the same compound?
Answer: Its GI50 is 7.4 µM (inactive).

Question: What about the GI50 (TK-10) of the same compound?
Answer: The GI50 was 17.5 µM (inactive).

Question: And the GI50 (SNB-19)?
Answer: The GI50 was 4.6 µM (inactive).

Question: What about the GI50 (KM12) of the same compound?
Answer: The GI50 was 4.55 µM (inactive).

Question: What about the GI50 (T47D) of the same compound?
Answer: Its GI50 is 4.83 µM (inactive).

Question: What about the GI50 (SR) of the same compound?
Answer: Its GI50 is 3.04 µM (inactive).

Question: What about the GI50 (NCI-H460) of the same compound?
Answer: The GI50 was 2.54 µM (inactive).

Question: And the GI50 (786-0)?
Answer: The GI50 was 6.24 µM (inactive).

Question: And the GI50 (HCC 2998)?
Answer: The GI50 was 8.11 µM (inactive).

Question: And the GI50 (MOLT-4)?
Answer: The GI50 was 4.65 µM (inactive).

Question: And the GI50 (LOX IMVI)?
Answer: The GI50 was 2 µM (inactive).

Question: And the GI50 (EKVX)?
Answer: The GI50 was 9.42 µM (inactive).

Question: And the GI50 (HT-29)?
Answer: The GI50 was 3.07 µM (inactive).
